These results are taken from PMC9821843, “Powerful Potential of Polyfluoroalkyl-Containing 4-Arylhydrazinylidenepyrazol-3-ones for Pharmaceuticals” (Molecules, 2022).

Values after ≈ are worked out from the molar mass of the structure shown. Like-named read-outs stand apart in the source and are kept apart here.

Series [1] addresses T1, equine serum butyrylcholinesterase (BChE, EC 3.1.1.8) (Equus caballus, UniProt P81908).
T1 construct: equine serum butyrylcholinesterase (BChE, EC 3.1.1.8); purchased Sigma-Aldrich (Saint Louis, MO, USA); host or cells: equine serum
Briefly: Inhibition of equine serum butyrylcholinesterase (Ellman assay). Format: biochemical. The conditions noted are these: read-out: Inhibition % at 20 µM, Equine BChE. From the text:
The following enzymes were purchased from Sigma-Aldrich (Saint Louis, MO, USA): porcine liver carboxylesterase (CES, EC 3.1.1.1), human erythrocyte acetylcholinesterase (AChE, EC 3.1.1.7) and equine serum butyrylcholinesterase (BChE, EC 3.1.1.8). Substrates for CES, AChE and BChE were 4-nitrophenyl acetate (4-NPA), acetylthiocholine iodide (ATCh) and butyrylthiocholine iodide (BTCh), respectively, and the colorimetric reagent for the AChE and BChE assays was 5,5’-dithio-bis-(2-nitrobenzoic acid) (DTNB) (Sigma-Aldrich). All the kinetic experiments were performed under standard conditions, according to the protocol of IPAC RAS for a reversible inhibitors study.
Final concentrations of reactants were 0.33 mM DTNB, 0.02 unit/mL of AChE or BChE and 1 mM of substrate (ATCh or BTCh, respectively). Reagent blanks consisted of reaction mixtures without enzyme to assess non-enzymatic hydrolysis of substrates.
Test compounds were dissolved in DMSO. Reaction mixtures contained a final DMSO concentration of 2% (v/v). […] Substrate was then added and residual enzyme activity relative to an inhibitor-free control was measured using a Bio-Rad Benchmark Plus microplate reader (Marnes-la-Coquette, France).
Measurements were performed in a Bio-Rad Benchmark Plus microplate reader. Each experiment was performed in triplicate. Plots, linear regressions and values of IC50, were determined using Origin 6.1 for Windows, OriginLab (Northampton, MA, USA).
(In general: In Ellman's method for cholinesterases, released thiocholine reacts with DTNB.)

Series [2] relates to Trichophyton rubrum RCPF F 1408. Briefly: Antifungal susceptibility testing, T. rubrum. The conditions noted are these: Trichophyton rubrum, RCPFF1408, read-out: MIC for fungi strains inhibition, T. rubrum.
Text: (§1) The solvent was DMSO. […] In each test, a growth control and a sterility control were used.
For series [3], the system named is Neisseria gonorrhoeae ATCC 49226/NCTC 12700. In words: Antibacterial activity against Neisseria gonorrhoeae. Type of series: cell-based. The conditions noted are these: read-out: MIC against Neisseria gonorrhoeae. The procedure: Antibacterial activity testing was done on the growth medium Difco GC medium base (Becton Dickinson, Franklin Lakes, NJ, USA) supplemented with 1% IsoVitaleX. Dilutions of chemical compounds were carried out in the range of 250–0.12 μg/mL in 24 well sterile plates (Sarstedt, Germany). Daily cultures of control bacterial strains were identified on a VITEK MS analyzer (BioMérieux, Marcy-l’Étoile, France) by MALDI-TOF mass spectrometry. The inoculation dose of N. gonorrhoeae inoculum was 10^5 CFU/mL.

Series [4] relates to Candida albicans RCPF Y 401/NCTC 885/653. Briefly: Antifungal susceptibility testing, C. albicans. The conditions noted are these: NCTC885, read-out: MIC for fungi strains inhibition, C. albicans.
Text: as §1
Series [5] deals with Epidermophyton floccosum RCPF F 1659/17. Briefly: Antifungal susceptibility testing, E. floccosum. The conditions noted are these: Epidermophyton floccosum, RCPFF1659/17, read-out: MIC for fungi strains inhibition, E. floccosum.
Text: as §1
The nature of series [6]: Acute toxicity evaluation in mice (ip). The conditions noted are these: CD-1, mouse, in vivo, 300 mg/kg. As for the experimental part: The toxicity evaluation was performed on CD-1 mice. […] The tested compounds in 1% starch mucilage were injected intraperitoneally into three mice. Then, animals were observed during 14 days, the number of deaths was counted and % of viability calculated.

The next series relates to Sprague-Dawley (SD) rats. Briefly: Hot plate test (analgesic activity). Format: in vivo. The conditions noted are these: ip; for change in vivo at 15 mg/kg: Rattus norvegicus. The procedure: The hot plate test was conducted according to established guidelines on Sprague-Dawley (SD) rats (3 male and 3 female rodents per group). The compounds were intraperitoneally administered in the form of suspensions in 1% starch mucilage. Negative control group animals received vehicle only (1% starch mucilage). Diclofenac sodium (Hemofarm, Vršac, Serbia, 10 mg/kg in 1% starch mucilage solution) or metamizole sodium (PAO Biosynthesis, Sun Pharma, Penza, Russia, 15 mg/kg in 1% starch mucilage solution) were used as reference drugs. One and two hours after the injection, rats were placed on an electrically heated to 50 °C plate (Hot plate 60,200 series, TSE-systems, Bad Homburg, Germany) in a Plexiglas cylindrical restrainer (19 cm diameter × 30 cm). The nociceptive response time was measured by observing the appearance of rats’ movements (e.g., jumping, hind paw licking or shaking). Maximal cutoff time was set as 30 s regardless of the response in order to preclude skin damage.
Differences between the values of the latency period for the treated (experimental) and control groups of animals were considered significant at p ≤ 0.05.
On the technique in general: In hot-plate and tail-flick tests a longer latency is read as antinociception.

Series [7] relates to Microsporum canis RCPF F 1643/1585. Briefly: Antifungal susceptibility testing, M. canis. The conditions noted are these: Microsporum canis, RCPFF1643/1585, read-out: MIC for fungi strains inhibition, M. canis.
Text: as §1
The nature of series [8]: Oxygen radical absorbance capacity (ORAC-FL) assay. The conditions noted are these: n.a. = inactive; i.t.s. = interferes with test system. From the text: We evaluated the primary antioxidant activity of synthesized 4-AHPs 5–9 in comparison with their non-fluorinated analogues 9a,b using three standard tests: ABTS, FRAP (ferric reducing antioxidant power) and ORAC (oxygen radical absorbance capacity) assays. The ABTS assay evaluates the binding of a model ABTS radical cation (ABTS^•+), which is realized by the mechanism of single electron transfer (SET) and/or hydrogen atom transfer (HAT). The FRAP assay measures the ability of compounds to reduce the ferric 2,4,6-tripyridyl-s-triazine complex [Fe(TPTZ)2]^3+ to [Fe(TPTZ)2]^2+, which occurs exclusively by the SET mechanism. The ORAC-FL assay measures the oxidative degradation of the fluorescent molecule (FL – fluorescein) after being mixed with a free peroxyl radical generator such as 2,2′-azobis-(2-methylpropionamidine) dihydrochloride (AAPH) in the presence of antioxidant (tested compound). The ORAC-FL test describes the antioxidants’ ability to yield the hydrogen atom and, consequently, it is a HAT-based assay. Trolox was used in all tests as a reference antioxidant: the antioxidant activity of the test compounds was referred to the activity of Trolox. The well-known antioxidant Edaravone was also used for comparison.
The ORAC assay was performed according to the known method, with minor variations and described by us recently.

Series [9] in a line: ABTS radical cation scavenging activity assay. Set-up: key to ABTS•+-scavenging activity, TEAC (trolox equivalent antioxidant capacity): TEAC = ratio of compound slope to Trolox slope vs ABTS absorbance. The conditions noted are these: mean ± SEM; for ABTS•+-scavenging activity, TEAC (trolox equivalent antioxidant capacity): n.a. = inactive. The procedure:
Radical scavenging activity of the compounds was evaluated by the ABTS radical cation (ABTS^•+) scavenging assay by the ability of the compounds to decolorize the ABTS^•+ solution [112] with some modifications. Trolox was used as a reference standard. Edaravone was used as the comparison compound. All tested compounds and standards were dissolved in DMSO. ABTS (2,2′-azinobis-(3-ethylbenzothiazoline-6-sulfonic acid)) was purchased from Tokyo Chemical Industry Co. Ltd. (Tokyo, Japan). Potassium persulfate (di-potassium peroxdisulfate), Trolox® (6-hydroxy-2,5,7,8-tetramethychroman-2-carboxylic acid), ascorbic acid, DMSO and HPLC-grade ethanol were obtained from Sigma-Aldrich Chemical Co. Aqueous solutions were prepared using deionized water.
The solution of ABTS^•+ was produced by mixing 7 mM ABTS aqueous solution with 2.45 mM potassium persulfate aqueous solution in equal quantities and allowing them to react for 12–16 h at room temperature in the dark. Radical scavenging capacity of the compounds was analyzed by mixing 10 μL of compound with 240 μL of ABTS^•+ working solution in ethanol (100 μM final concentration), and after 1 h of incubation at 30 °C the decrease in absorbance was measured spectrophotometrically at 734 nm using a Bio-Rad xMark microplate UV/VIS spectrophotometer (Bio-Rad, Hercules, CA, USA). The compounds were tested in the concentration range of 5 × 10^–7–4 × 10^–4 M. Ethanol blanks were run in each assay. Values were obtained from five replicates of each sample and three independent experiments.
Antioxidant activity was calculated as Trolox equivalent antioxidant capacity (TEAC values), consisting of the ratio between the slopes obtained from the linear correlation for concentrations of the tested compounds and Trolox with absorbance of ABTS radical. For the test compounds, which reduce ABTS^•+ absorbance by more than 60% at 100 µM, we also determined IC50 values as 50% reduction of the ABTS radical. The calculations were carried out using Origin 6.1 for Windows. Results were presented as mean ± SEM, calculated using GraphPad Prism version 6.05 for Windows, GraphPad Software.

[10] abbreviates: hot plate test, rats, dose 15 mg/kg, 2 h, n.a. = inactive (p > 0.05), read-out: Latent Period Prolongation, % 2 h.
[11] abbreviates: hot plate test, rats, dose 15 mg/kg, 1 h, n.a. = inactive (p > 0.05), read-out: Latent Period Prolongation, % 1 h.

T1 sequence (P81908 whole entry): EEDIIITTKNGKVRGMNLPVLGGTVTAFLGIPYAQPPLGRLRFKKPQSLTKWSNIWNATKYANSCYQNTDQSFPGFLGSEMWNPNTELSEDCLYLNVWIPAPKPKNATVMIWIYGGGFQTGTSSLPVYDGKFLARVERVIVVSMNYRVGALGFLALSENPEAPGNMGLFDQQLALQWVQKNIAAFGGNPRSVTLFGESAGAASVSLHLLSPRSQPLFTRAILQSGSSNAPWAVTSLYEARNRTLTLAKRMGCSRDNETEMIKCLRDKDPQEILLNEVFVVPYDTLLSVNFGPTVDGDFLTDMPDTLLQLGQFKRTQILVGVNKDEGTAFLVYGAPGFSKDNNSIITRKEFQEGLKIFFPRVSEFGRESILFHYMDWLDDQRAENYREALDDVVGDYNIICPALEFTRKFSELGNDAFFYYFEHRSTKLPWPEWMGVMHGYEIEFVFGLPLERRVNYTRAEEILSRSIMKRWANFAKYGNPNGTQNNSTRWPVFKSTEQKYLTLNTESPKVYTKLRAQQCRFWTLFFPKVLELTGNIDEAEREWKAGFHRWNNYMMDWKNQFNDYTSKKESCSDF

Usually inhibition stands for the relative decrease from the control value, in per cent. A word on the MIC: it is the lowest concentration that inhibits growth of the organism. With `O=C1/C(=N\Nc2c(Cl)cccc2Cl)C(C(F)(F)F)=NN1c1ccccc1` [5j, (4Z)-4-[2-(2,6-Dichlorophenyl)hydrazinylidene]-2-phenyl-5-(trifluoromethyl)-2,4-dihydro-3H-pyrazol-3-one], the inhibition at 20 µM in series [1] came out at 7.1 ± 1.2%. Also, the minimum inhibitory concentration (MIC) in series [2] was more than 200 µg/mL; in series [3], 31.2 µg/mL (≈ 77.8 µM); in series [4] it was more than 200 µg/mL; in series [5], more than 200 µg/mL; in series [7] it was more than 200 µg/mL. In [6], this compound displayed a survival at 14 days of 100%. The “analgesic activity in the hot plate test” value in the series on Sprague-Dawley (SD) rats (SD rats, dose 15 mg/kg, 1 and 2 h) is “inactive”.
As to `NS(=O)(=O)c1ccc(N/N=C2\C(=O)N(c3ccccc3)N=C2C(F)(F)F)cc1` [5n, (4Z)-4-(2-[4-(Aminosulfonyl)phenyl]hydrazinylidene)-2-phenyl-5-(trifluoromethyl)-2,4-dihydro-3H-pyrazol-3-one], the inhibition at 20 µM in series [1] stood at 3.5 ± 0.6%. Moreover, the “ORAC-FL (TE, antioxidant activity in Trolox equivalents)” value in series [8] was “i.t.s”. Also, the survival at 14 days in series [6] came out at 100%. The change in vivo at 15 mg/kg in the series with Sprague-Dawley (SD) rats (setting [10]) came to 84%.
Consider `Cc1ccc(N/N=C2\C(=O)N(c3ccc(C)cc3)N=C2C(F)(F)F)cc1` [5r, (4Z)-2-(4-Methylphenyl)-4-[2-(4-methylphenyl)hydrazinylidene]-5-(trifluoromethyl)-2,4-dihydro-3H-pyrazol-3-one], for which the inhibition at 20 µM in series [1] turned out to be 4 ± 1%. The minimal inhibitory concentration (MIC) in [2] is more than 200 µg/mL; in series [3], more than 250 µg/mL; in [4], more than 200 µg/mL; in series [5] it was more than 200 µg/mL; in series [7], more than 200 µg/mL. The “ABTS•+-scavenging activity, TEAC (trolox equivalent antioxidant capacity)” value in [9] stood at 0.13 ± 0.007. In addition, the survival at 14 days in series [6] was found to be 100%. Besides, the change in vivo at 15 mg/kg in the series with Sprague-Dawley (SD) rats (setting [11]) was found to be 63.2%; in the series on Sprague-Dawley (SD) rats (setting [10]), 74.2%.
For `O=C1/C(=N\Nc2cccc(Cl)c2)C(C(F)(F)C(F)(F)F)=NN1c1ccccc1` [6d, (4Z)-4-[2-(3-Chlorophenyl)hydrazinylidene]-5-(pentafluoroethyl)-2-phenyl-2,4-dihydro-3H-pyrazol-3-one], in [1], the inhibition at 20 µM was 7.8 ± 1.2%. Moreover, the MIC in series [2] is more than 200 µg/mL; in [3], 15.6 µg/mL (≈ 37.4 µM); in series [4], more than 200 µg/mL; in series [5], 200 µg/mL (≈ 480 µM); in [7], more than 200 µg/mL. The compound further came in with a survival at 14 days in [6] of 100%. Also, the change in vivo at 15 mg/kg with Sprague-Dawley (SD) rats (setting [11]) came to 93%; in the series on Sprague-Dawley (SD) rats (setting [10]), 63%.
A word on the IC50: it is the concentration needed to halve the response being measured. Regarding `Cc1ccc(N/N=C2\C(=O)NN=C2C(F)(F)C(F)(F)C(F)(F)C(F)(F)F)cc1` [8a, (4Z)-5-(Nonafluorobutyl)-4-[2-(4-methylphenyl)hydrazinylidene]-2,4-dihydro-3H-pyrazol-3-one], the MIC is more than 200 µg/mL in series [2]; 250 µg/mL (≈ 595 µM) in series [3]; more than 200 µg/mL in series [4]; more than 200 µg/mL in [5]; more than 200 µg/mL in series [7]. Further, in [9], the IC50 worked out at 48.3 ± 2.2 µM. In series [9], the “ABTS•+-scavenging activity, TEAC (trolox equivalent antioxidant capacity)” value turned out to be 0.43 ± 0.03. Moreover, the “ORAC-FL (TE, antioxidant activity in Trolox equivalents)” value in series [8] was determined as 2.33 ± 0.15. Further, the survival at 14 days in series [6] is 100%. The change in vivo at 15 mg/kg is 62.9% in the series on Sprague-Dawley (SD) rats (1 h, read-out: Latent Period Prolongation, % 1 h) and 40.4% in the series on Sprague-Dawley (SD) rats (2 h, read-out: Latent Period Prolongation, % 2 h).
As for `CN[C@@H]1[C@H](O)[C@H](NC)[C@H]2O[C@@]3(O)C(=O)C[C@@H](C)O[C@H]3O[C@@H]2[C@H]1O` [Spectinomycin, reference compound], in [3], the MIC was determined as 15.6 µg/mL (≈ 46.9 µM).
For the compound `Cc1c(N(C)CS(=O)(=O)O)c(=O)n(-c2ccccc2)n1C` [metamizole, reference compound], the survival at 14 days in series [6] is 100%. The change in vivo at 15 mg/kg was 34.2 ± 11.3% in the series with Sprague-Dawley (SD) rats (setting [11]) and 64.6 ± 22.5% with Sprague-Dawley (SD) rats (setting [10]).
